Laboratory results: patent US11352350B2, “IRAK degraders and uses thereof” (Kymera Therapeutics, Inc., priority 2018, dated 2022)

How the values were obtained:
IRAK4 [1] = target: T1, IRAK4 (Homo sapiens (Human), UniProt Q9NWZ3); assay: IRAK4 MSD degradation in OCI-LY10; format: cell-based
In short: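 OCI-LY10 cells treated with 8-point 1:3 dilutions (top 1 to 10 μM final) for 4 to 24 h at 37° C. Lysate IRAK4 measured by MSD sandwich immunoassay (2H9 capture, Y279 detection, SULFO-TAG anti-rabbit). DC50 from three-parameter logistic fit.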

IRAK4 [2] = target: T1, IRAK4; assay: hPBMC IRAK4 degradation flow assay; format: cell-based; conditions: hPBMC monocyte
In short: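 Thawed human PBMCs treated with 10-point, 5-fold compound dilutions (0.1% DMSO) at 37° C. for 20 hours or 4 hours. IRAK4 measured by flow MFI in CD14+ monocytes and CD14− lymphocytes, normalized to DMSO and 10 μM 20-hour control; DC50 and max degradation from 4-parameter logistic fit.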

OCI-LY10 = assay: CTG Cell Viability Assay - OCI-LY10; format: cell-based, human; conditions: Homo sapiens, OCI-Ly10, 96 h, OCI-LY10, 4 days; read-out: CTG Cell Viability Assay - OCI-LY10: Average external-IC50
In short: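 OCI-LY10 cells exposed to 9-dose, 1:3 dilutions from 10 μM top (0.2% DMSO) for 4 days at 37° C, 5% CO2. Viability by CellTiter-Glo luminescence; IC50 from three-parameter logistic fit.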

IL-6 = IL-6 secretion in hPBMC using R848 stimulation; format: cell-based, human; conditions: hPBMC, R848 as stim, t = 20 h
[3] = OCI-LY10, 4 hrs, MSD, read-out: IRAK4 MSD degradation in OCI-LY10 at 4 hrs: Average external-Abs DC50
[4] = 20 hr, flow assay, read-out: IRAK4 degradation in hPBMC monocyte at 20 hr: Average external Abs DC50
[5] = OCI-LY10, 4 hrs, read-out: IRAK4 MSD degradation in OCI-LY10 at 4 hrs: DC50
[6] = 20 hrs, read-out: IRAK4 degradation in hPBMC monocyte: DC50

T1 sequence (Q9NWZ3 whole entry): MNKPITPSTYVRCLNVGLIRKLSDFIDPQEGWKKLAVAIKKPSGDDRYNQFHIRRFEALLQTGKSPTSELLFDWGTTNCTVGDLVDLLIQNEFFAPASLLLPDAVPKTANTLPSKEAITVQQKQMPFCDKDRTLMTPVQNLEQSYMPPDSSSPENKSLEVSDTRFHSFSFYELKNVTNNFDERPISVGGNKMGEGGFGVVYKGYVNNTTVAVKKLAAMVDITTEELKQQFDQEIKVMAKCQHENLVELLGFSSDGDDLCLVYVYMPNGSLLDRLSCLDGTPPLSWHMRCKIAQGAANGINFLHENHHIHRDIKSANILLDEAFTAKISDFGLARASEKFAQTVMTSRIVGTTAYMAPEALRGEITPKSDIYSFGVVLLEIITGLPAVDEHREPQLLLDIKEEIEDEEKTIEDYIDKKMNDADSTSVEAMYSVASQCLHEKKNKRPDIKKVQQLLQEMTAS

Compound	DC50 (IRAK4 [1]; [3]) [nM]	DC50 (IRAK4 [2]; [4]) [nM]	IC50 (OCI-LY10) [nM]	IC50 (IL-6; Homo sapiens, 20 h) [nM]	DC50 (IRAK4 [1]; [5]) [nM]	DC50 (IRAK4 [2]; [6]) [nM]	DC50 (IRAK4 [1]; OCI-LY10, 24 hrs, MSD, read-out: IRAK4 MSD degradation in OCI-LY10 at 24 hrs: Average external-Abs DC50) [nM]	IC50 (IL-6) [nM]
Cn1c(=O)n(C2CCC(=O)NC2=O)c2cccc(CCC(=O)C3CC4(CCN(C[C@H]5CC[C@H](n6cc(NC(=O)c7cnn8ccc(N9C[C@H]%10C[C@@H]9CO%10)nc78)c(C(F)F)n6)CC5)CC4)C3)c21 (some centres unmarked) [I-415]	< 10	< 10	> 1000	< 1				
CN(CCCc1cccc2c1n(C)c(=O)n2C1CCC(=O)NC1=O)C(=O)c1ccc(N2CCC(n3cc(NC(=O)c4cnn5ccc(N6C[C@H]7C[C@@H]6CO7)nc45)c(C(F)F)n3)CC2)cc1 (some centres unmarked) [I-479]			> 1000	10 to 100	100 to 1000	100 to 1000		
Cn1c(=O)n(C2CCC(=O)NC2=O)c2cccc(CCC(=O)N3CCC4(CC3)CN(C[C@H]3CC[C@H](n5cc(NC(=O)c6cnn7ccc(N8C[C@H]9C[C@@H]8CO9)nc67)c(C(F)F)n5)CC3)C4)c21 (some centres unmarked) [I-414]	< 10	< 10	> 1000	< 1				
CN1C(=O)C(C2CCC(=O)NC2=O)c2cc(CCCOC3CCN(C[C@H]4CC[C@H](C5N=C(NC(=O)c6cnn7ccc(N8C[C@H]9C[C@@H]8CO9)nc67)C(C(F)F)=N5)CC4)CC3)ccc21 (some centres unmarked) [I-553]			> 1000	1 to 10	100 to 1000	10 to 100		
Cn1c(=O)n(C2CCC(=O)NC2=O)c2cccc(C#CCCCNC[C@H]3CC[C@H](n4cc(NC(=O)c5cnn6ccc(N7C[C@H]8C[C@@H]7CO8)nc56)c(C(F)F)n4)CC3)c21 (stereo partly drawn) [I-518, N-[3-(difluoromethyl)-1-[4-[[5-[1-(2,6-dioxo-3-piperidyl)-3-methyl-2-oxo-benzimidazol-4-yl]pent-4-ynylamino]methyl]cyclohexyl]pyrazol-4-yl]-5-[(1R)-2-oxa-5-azabicyclo[2.2.1]heptan-5-yl]pyrazolo[1,5-a]pyrimidine-3-carboxamide]			> 1000	1 to 10	10 to 100	< 10		
CN(CC(CCCOCCCc1cccc2c1n(C)c(=O)n2C1CCC(=O)NC1=O)C(=O)O)C[C@H]1CC[C@H](n2cc(NC(=O)c3cnn4ccc(N5C[C@H]6C[C@@H]5CO6)nc34)c(C(F)F)n2)CC1 (stereo partly drawn) [I-495, 2-[[[4-[3-(Difluoromethyl)-4-[[5-[(1R,4R)-2-oxa-5-azabicyclo [2.2.1]heptan-5-yl]pyrazolo [1,5-a]pyrimidine-3-carbonyl]amino]pyrazol-1-yl]cyclohexyl]methyl-methyl-amino]methyl]-5-[3-[1-(2,6-dioxo-3-piperidyl)-3-methyl-2-oxo-benzimidazol-4-yl]propoxy]pentanoic acid]			> 1000	10 to 100	100 to 1000	10 to 100		
CC[C@@H]1[C@H](F)C(=O)N[C@@H]1COc1ncc(C#C[C@H]2CC[C@H](CN(C)CCCOCCCc3ccc4c(c3)n(C)c(=O)n4C3CCC(=O)NC3=O)CC2)c2cc(C(N)=O)c(OC)cc12 (some centres unmarked) [I-185]	10 to 100	< 10	> 1000	< 1			10 to 100	
Cn1c(=O)n(C2CCC(=O)NC2=O)c2cccc(CCCN3CCC4(CC3)CN(C(=O)[C@H]3CC[C@H](n5cc(NC(=O)c6cnn7ccc(N8C[C@H]9C[C@@H]8CO9)nc67)c(C(F)F)n5)CC3)C4)c21 (some centres unmarked) [I-422]	10 to 100	< 10	> 1000	< 1				
Cn1c(=O)n(C2CCC(=O)NC2=O)c2cccc(CN3C[C@H]4CC[C@@H](C3)N4CC[C@H]3CC[C@H](n4cc(NC(=O)c5cnn6ccc(N7C[C@H]8C[C@@H]7CO8)nc56)c(C(F)F)n4)CC3)c21 (some centres unmarked) [I-511]			> 1000	1 to 10	10 to 100	< 10		
Cn1c(=O)n(C2CCC(=O)NC2=O)c2cccc(CC[C@@H]3CN(C[C@H]4CC[C@H](C5N=C(NC(=O)c6cnn7ccc(N8CCCOCC8)nc67)C(C(F)F)=N5)CC4)CCO3)c21 (some centres unmarked) [I-514]			> 1000	< 1	< 10	< 10		
Cn1c(=O)n(C2CCC(=O)NC2=O)c2cccc(CCC3CCN(c4ccc(CN5CCC(n6cc(NC(=O)c7cnn8ccc(N9C[C@H]%10C[C@@H]9CO%10)nc78)c(C(F)F)n6)CC5)cc4)CC3)c21 (some centres unmarked) [I-517]			> 1000	1 to 10	10 to 100	< 10		
Cn1c(=O)n(C2CCC(=O)NC2=O)c2cccc(CC(=O)N3CC4(CCN(C[C@H]5CC[C@H](n6cc(NC(=O)c7cnn8ccc(N9C[C@H]%10C[C@@H]9CO%10)nc78)c(C(F)F)n6)CC5)CC4)C3)c21 (some centres unmarked) [I-421]	< 10	< 10	> 1000	< 1				
Cn1c(=O)n(C2CCC(=O)NC2=O)c2cccc(CCCC3CCN(C[C@H]4CC[C@H](n5cc(NC(=O)c6cnn7ccc(N8C[C@H]9C[C@@H]8CO9)nc67)c(C(F)F)n5)CC4)CC3)c21 (some centres unmarked) [I-416]	< 10	< 10	> 1000	< 1				
Cn1c(=O)n(C2CCC(=O)NC2=O)c2cccc(OC3CC4(CCN(C[C@H]5CC[C@H](n6cc(NC(=O)c7cnn8ccc(N9C[C@H]%10C[C@@H]9CO%10)nc78)c(C(F)F)n6)CC5)CC4)C3)c21 (some centres unmarked) [I-526]			> 1000	< 1	< 10	< 10		
O=C1CCC(n2c3ccccc3c3c(CCCN4CC5(CCN(C(=O)[C@H]6CC[C@H](n7cc(NC(=O)c8cnn9ccc(N%10C[C@H]%11C[C@@H]%10CO%11)nc89)c(C(F)F)n7)CC6)CC5)C4)ccnc32)C(=O)N1 (some centres unmarked) [I-447]			> 1000	1 to 10	10 to 100	< 10		
Cc1ccc(-c2nn([C@H]3CC[C@H](CN4CCC5(CC4)CN(CCCc4cccc6c4n(C)c(=O)n6C4CCC(=O)NC4=O)C5)CC3)cc2NC(=O)c2cnn3cccnc23)nc1 (some centres unmarked) [I-509]			> 1000	1 to 10	10 to 100	10 to 100		
C[C@@H]1CN(c2ccn3ncc(C(=O)Nc4cn([C@H]5CC[C@H](C(=O)N6CCC7(CC6)CN(CCCc6cccc8c6n(C)c(=O)n8C6CCC(=O)NC6=O)C7)CC5)nc4C(F)F)c3n2)C[C@H](C)O1 (some centres unmarked) [I-480]			> 1000	< 1	10 to 100	< 10		
Cn1c(=O)n(C2CCC(=O)NC2=O)c2cccc(CN3CCN(CC[C@H]4CC[C@H](n5cc(NC(=O)c6cnn7ccc(N8C[C@H]9C[C@@H]8CO9)nc67)c(C(F)F)n5)CC4)CC3)c21 (some centres unmarked) [I-510]			> 1000	1 to 10		< 10		
Cn1c(=O)n(C2CCC(=O)NC2=O)c2cccc(CCCN3CCOC4(CCN(C[C@H]5CC[C@H](n6cc(NC(=O)c7cnn8ccc(N9C[C@H]%10C[C@@H]9CO%10)nc78)c(C(F)F)n6)CC5)CC4)C3)c21 (some centres unmarked) [I-450]			> 1000		10 to 100	< 10		1 to 10
Cn1c(=O)n(C2CCC(=O)NC2=O)c2cccc(CCCN3CCOC4(CCN(C(=O)c5ccc(-n6cc(NC(=O)c7cnn8ccc(N9C[C@H]%10C[C@@H]9CO%10)nc78)c(C(F)F)n6)cc5)CC4)C3)c21 (some centres unmarked) [I-424]	< 10	< 10	> 1000	1 to 10				
Cn1c(=O)n(C2CCC(=O)NC2=O)c2cccc(CCC3CC4(CCN(C[C@H]5CC[C@H](n6cc(NC(=O)c7cnn8ccc(N9C[C@H]%10C[C@@H]9CO%10)nc78)c(C(F)F)n6)CC5)CC4)C3)c21 (some centres unmarked) [I-486]			> 1000	< 1	< 10	< 10		
CN(CC(CCCOCCCc1cccc2c1n(C)c(=O)n2C1CCC(=O)NC1=O)C(=O)O)C[C@H]1CC[C@H](n2cc(NC(=O)c3coc(-c4ccnc(NCC5CC5)c4)n3)c(C(F)F)n2)CC1 (some centres unmarked) [I-396, 2-[[[4-[4-[[2-[2-(Cyclopropylmethylamino)-4-pyridyl]oxazole-4-carbonyl]amino]-3-(difluoromethyl)pyrazol-1-yl]cyclohexyl]methyl-methyl-amino]methyl]-5-[3-[1-(2,6-dioxo-3-piperidyl)-3-methyl-2-oxo-benzimidazol-4-yl]propoxy]pentanoic acid]	10 to 100	10 to 100	50 to 100	1 to 10				
Cc1ccc(-c2nn([C@H]3CC[C@H](C(=O)N4CCC5(CC4)CN(CCCc4cccc6c4n(C)c(=O)n6C4CCC(=O)NC4=O)C5)CC3)cc2NC(=O)c2cnn3cccnc23)nc1 (some centres unmarked) [I-499]			> 1000	1 to 10	< 10	< 10		
Cn1c(=O)n(C2CCC(=O)NC2=O)c2cccc(C[C@H]3CC[C@H](N(C)C[C@H]4CC[C@H](n5cc(NC(=O)c6cnn7ccc(N8C[C@H]9C[C@@H]8CO9)nc67)c(C(F)F)n5)CC4)CC3)c21 (some centres unmarked) [I-508]			> 1000	1 to 10		< 10		
CN(C[C@H]1CC[C@H](n2cc(NC(=O)c3cnn4ccc(N5C[C@H]6C[C@@H]5CO6)nc34)c(C(F)F)n2)CC1)C1CCN(Cc2cccc3c2n(C)c(=O)n3C2CCC(=O)NC2=O)CC1 (some centres unmarked) [I-465]				< 1	< 10	< 10		
